The source of these data is ChEMBL document CHEMBL1201862, “PubChem BioAssay data set” (2004).

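These data come from cells grown in 96-well plates and exposed to compound for 48 hours at five concentrations. GI50 is the concentration that inhibits growth by half.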 Activity calls are given as the source filed them. Rule as the data show it: active = GI50 up to about 1.1 µM and inactive = higher. Where a SMILES comes first, the peptide text is derived from it. Non-standard residues stand in square brackets, D forms with d. Residues, ends and D or L forms follow the SMILES beside them. The star is where a group is joined. *: point of attachment. Benzoyl(4-OMe) = COc1ccc(C(=O)*)cc1; 2Thi = N[CH](Cc1cccs1)C(=O)O; Cbz = O=C(OCc1ccccc1)*

Common to all, as to experiment: NCI-60 cell line screen, 48 h
Assay [1] concerns 786-0.
Assay [2] relates to PC-3.
For assay [3], the system named is SNB-19.
In assay [4] the test system is EKVX.
In assay [5] the test system is Malme-3M.
Assay [6] deals with OVCAR-4.
Assay [7] has as its system MDA-MB-231.
Assay [8] has as its system HL-60.
Assay [9] concerns TK-10.
In assay [10] the test system is HT-29.
In assay [11] the test system is SF-268.
Assay [12] has as its system SNB-75.
The test system of assay [13] is RPMI-8226.
Assay [14] concerns SF-295.
Assay [15] deals with MOLT-4.
Assay [16] concerns A549.
Assay [17] relates to U-251.
The subject of assay [18] is SF-539.
For assay [19], the system named is DU-145.
For assay [20], the system named is NCI-H522.

On to `O=C(O)C1CC(O)CN1` (stereo not given), for which the GI50 in assay [1], in assay [2], in assay [3], in assay [4], in assay [5] and in assay [6] was > 100 µM (inactive) throughout. Moreover, the GI50 in assay [7], in assay [8], in assay [9], in [10], in assay [11] and in [12] was > 100 µM (inactive) each time. For the same molecule, the GI50 in assay [13], in assay [14], in assay [15], in [16], in [17] and in [18] was > 100 µM (inactive) throughout. In assay [19], the GI50 was > 100 µM (inactive).
In the case of `Cc1ccc(/C=C2\NC(=S)N(CN3CCCCC3)C2=O)cc1`, the GI50 was 47.3 µM (inactive) in [1]; 61.4 µM (inactive) in [2]; 55.5 µM (inactive) in [3]; 46.3 µM (inactive) in assay [4]; 85.3 µM (inactive) in assay [5]; 39.4 µM (inactive) in assay [6]. For the same molecule, the GI50 in assay [20] is 35.8 µM (inactive); in assay [7], > 100 µM (inactive); in assay [9] it was 69.3 µM (inactive); in [10] it was 24.2 µM (inactive); in assay [11] it was 64 µM (inactive); in assay [12] it was > 100 µM (inactive). Besides, the GI50 in assay [13] was 32.2 µM (inactive); in assay [14] it was 44.6 µM (inactive); in assay [15] it was 93.3 µM (inactive); in [16] it was 51.2 µM (inactive); in assay [17], 48.6 µM (inactive); in assay [19] it was 36.1 µM (inactive).
As to `CCCNC(=O)Nc1ccc2c(c1)Cc1cc(N(CCCl)CCCl)ccc1-2`, the GI50 in assay [1] was 34.6 µM (inactive); in [2], 25.2 µM (inactive); in assay [3] it was 19.2 µM (inactive); in assay [4] it was 18.6 µM (inactive); in assay [5] it was 36 µM (inactive); in assay [20], 17.6 µM (inactive). Moreover, the GI50 in assay [7] is 28.4 µM (inactive); in assay [8] it was 5.94 µM (inactive); in [9], 61.9 µM (inactive); in [10], 3.24 µM (inactive); in assay [11] it was 21.8 µM (inactive); in assay [13], 25.4 µM (inactive). In addition, the GI50 in assay [14] is 14.2 µM (inactive); in assay [16], 23.9 µM (inactive); in [17], 18 µM (inactive); in [18], 5.53 µM (inactive); in assay [19], 14.6 µM (inactive).
In the case of `CC(=O)OC12c3ccccc3C(c3ccccc31)C1C(=O)N(c3ccccc3O)C(=O)C12` (stereo not given), the GI50 in assay [1] was > 100 µM (inactive); in assay [2], > 100 µM (inactive); in assay [3], 84.9 µM (inactive); in assay [4] it was > 100 µM (inactive); in [5], 90.4 µM (inactive); in [6] it was > 100 µM (inactive). For the same molecule, the GI50 in assay [7] was > 100 µM (inactive); in [8], 76.9 µM (inactive); in assay [9], > 100 µM (inactive); in assay [10] it was 70.5 µM (inactive); in [11] it was 80.5 µM (inactive); in assay [12], 46.3 µM (inactive). The GI50 in assay [13] is 66.5 µM (inactive); in assay [14], 80.2 µM (inactive); in [15], > 100 µM (inactive); in [16], > 100 µM (inactive); in assay [17], > 100 µM (inactive); in assay [18], > 100 µM (inactive). Moreover, the GI50 in assay [19] was > 100 µM (inactive).
With `COc1ccc(C2C3=C(COC3=O)Oc3cc4c(cc32)OCO4)c(OC)c1` (stereo not given), the GI50 in assay [1] was 21.7 µM (inactive); in assay [2] it was 6.75 µM (inactive); in assay [3], 37.8 µM (inactive); in [4], 48.5 µM (inactive); in assay [5] it was 14.9 µM (inactive); in assay [6], 8.11 µM (inactive). Further, the GI50 in assay [7] is 9.04 µM (inactive); in assay [8], 4.34 µM (inactive); in assay [9] it was 62.1 µM (inactive); in assay [10], 6.65 µM (inactive); in assay [11] it was 34 µM (inactive); in [12], 10.9 µM (inactive). For the same molecule, the GI50 in [13] is 7.74 µM (inactive); in assay [14] it was 5.77 µM (inactive); in assay [15], 4.28 µM (inactive); in assay [16], 10.9 µM (inactive); in assay [17] it was 19.3 µM (inactive); in assay [18], 12.6 µM (inactive). In addition, the GI50 in assay [19] is 26.3 µM (inactive).
As to `NS(=O)(=O)c1ccc(Nc2c3ccccc3nc3c(C(=O)NC(CO)(CO)CO)cccc23)cc1`, the GI50 in assay [1] is 0.0201 µM (active); in assay [2], 0.226 µM (active); in assay [3] it was 0.217 µM (active); in assay [4] it was 0.314 µM (active); in [5], 0.135 µM (active); in assay [6] it was 0.0598 µM (active). In addition, the GI50 is 0.15 µM (active) in [20]; 0.195 µM (active) in assay [7]; 0.21 µM (active) in [8]; 0.164 µM (active) in assay [9]; 0.184 µM (active) in assay [10]; 0.17 µM (active) in [11]. Further, the GI50 in [13] was 0.217 µM (active); in [14], 0.294 µM (active); in assay [15], 0.0468 µM (active); in [16], 0.123 µM (active); in assay [17], 0.119 µM (active); in assay [18], 0.204 µM (active). The GI50 in assay [19] is 0.194 µM (active).
As for `CSc1nc(Nc2ccccc2Cl)c2c(N)nn(C)c2n1`, the GI50 in [1] was 82 µM (inactive); in [2] it was > 100 µM (inactive); in assay [3], > 100 µM (inactive); in assay [4], 24.4 µM (inactive); in assay [5], > 100 µM (inactive); in assay [6], > 100 µM (inactive). The GI50 in assay [20] was 75.2 µM (inactive); in [7] it was 28.3 µM (inactive); in assay [9], > 100 µM (inactive); in assay [10] it was > 100 µM (inactive); in [11] it was 77.8 µM (inactive); in assay [12], > 10 µM (inactive). For the same molecule, the GI50 in [13], in [14], in [15], in [16], in [17] and in assay [19] was > 100 µM (inactive) throughout.
Consider `COC1OC(C)C(NC(=O)OCC(Cl)(Cl)Cl)C2OC(C)(C)OC12` (stereo not given), for which the GI50 in assay [1], in assay [2], in assay [3], in assay [4], in assay [5] and in [6] was > 100 µM (inactive) in each case. In addition, the GI50 in assay [20], in assay [7], in assay [8], in assay [9], in assay [10] and in assay [11] was > 100 µM (inactive) each time. Also, the GI50 in assay [13], in [14], in [15], in assay [16], in assay [17] and in assay [18] was > 100 µM (inactive) in each case. Besides, the GI50 in assay [19] is > 100 µM (inactive).
In the case of `CCOC(=O)CCC(NC(=O)CNC(=O)CNC(=O)C(CCC(=O)OCC)NC(=O)C(CCC(=O)OCC)NC(=O)C(CCC(=O)OCC)NC(=O)OCc1ccccc1)C(=O)NC(CCC(=O)OCC)C(=O)NC(CCC(=O)OCC)C(=O)OCC` (stereo not given) (Cbz-E(OEt)E(OEt)E(OEt)GGE(OEt)E(OEt)E(OEt)-OEt; configuration not given here), the GI50 in assay [1], in assay [2], in assay [3], in assay [4], in [5] and in assay [6] was > 75 µM (inactive) each time. In addition, the GI50 in assay [20], in assay [7], in assay [9], in assay [10], in assay [11] and in [12] was > 75 µM (inactive) each time. The GI50 in assay [13], in assay [14], in assay [15], in assay [16], in [17] and in assay [19] was > 75 µM (inactive) in each case.
Consider `CCC(C)C(NC(=O)C(Cc1cccs1)NC(=O)C(CC(C)C)NC(=O)C(CC(C)C)NC(=O)C(CCCCN)NC(=O)C(CCCNC(=N)N)NC(=O)c1ccc(OC)cc1)C(=O)NC(CC(C)C)C(N)=O` (stereo not given) ({Benzoyl(4-OMe)}-RKLL[2Thi]IL-NH2; configuration not given here), for which the GI50 in assay [1], in assay [2], in assay [3], in [4], in [5] and in assay [6] was > 100 µM (inactive) throughout. Also, the GI50 in [20], in [7], in assay [9], in [10], in assay [11] and in [12] was > 100 µM (inactive) throughout. Further, the GI50 in [13], in assay [14], in assay [15], in [16], in assay [17] and in [18] was > 100 µM (inactive) throughout. Also, the GI50 in assay [19] is > 100 µM (inactive).
